{"source": "patent US8993717B2", "about": "“Gadd45beta targeting agents” (Imperial Innovations Limited, priority 2009, dated 2015)", "key": {"[1]": {"experiment": "Mouse pharmacokinetics study, single i.v. injection", "assay_type": "in vivo, male CD1 mice", "conditions": "for Last Time point: in h (unit assumed); for kel: 0.693/t1/2, table note; for half-life / clearance / Vd: male, CD1, mouse; for C0 / MRT inf / AUC: mouse; for AUC: read-out: AUC to Last; for acute toxicity in mice: single i.v. dose 10 mg/kg", "method": "Z-DTP2 and Z-mDTP3 were administered intravenously to mice. Blood samples were collected at up to 7 time points after intravenous (i.v.) injection of the compounds over 8 hrs, and plasma was analysed by LC-MS/MS to determine the concentration of the compounds at each time point.\nThree male CD1 mice, 25-30 grams each, were dosed per administration route per time-point, per compound. The test compound was administered intravenously (at a typical dose level of 10 mg of compound per kg of body weight). Animals were given free access to food throughout the study.\nBlood samples were centrifuged to obtain the plasma, which was then transferred to a separate labelled container. Aliquots from the individual time points for the three animals were analysed singly. Proteins were precipitated by adding three volumes of methanol and centrifuging for 30 min at 4° C. Aliquots of 100 μl of the resulting supernatants were diluted with 200 μl of HPLC grade water in wells of a 96-well plate.\nStandard curves were prepared in blank plasma matrices and treated in an identical manner to the samples. The plasma samples were quantified by LC-MS/MS, and the concentration of each compound in the plasma were reported in μg/mL.\nPharmacokinetic parameters were calculated employing non-compartmental model analysis, as described in the web site http://www.pharsight.com/main.php\nThe test compound concentration in plasma samples was measured by LC-MS/MS. The data were quantified using a five-point standard curve over a range of 3-3000 ng/mL.\nProteins were precipitated from 50 μL aliquots of the individual plasma samples by adding 150 μL methanol. Following protein precipitation, plasma samples were centrifuged for 30 min at 4° C. Aliquots of 100 μL of the resulting supernatant were diluted with 200 μL of HPLC grade water in a 96 well plate. The test compound was then quantified by LC-MS/MS from a five-point standard curve prepared by spiking plasma with varying concentrations of test compound dissolved in DMSO over a final concentration range of 3-3000 ng/mL (final DMSO concentration 1%) and treated in an identical manner to the test samples as described above."}, "[2]": {"test_system": "KMS11 multiple myeloma cells", "experiment": "[3H]thymidine incorporation assay in KMS11", "assay_type": "cell-based, human", "conditions": "read-out: IC50 [H^3] thymidine incorporation assay in KMS11", "method": "Cultures of multiple myeloma cells and treatments with Z-DTPs were carried out as described in Example 8 (see below). The effects of Z-DTPs on the survival/proliferation of multiple myeloma cells were evaluated by the use of [^3H]thymidine) incorporation assays, performed as also described in Example 8. The amount of cell proliferation measured with each of the Z-DTPs' concentrations used and with the untreated cultures (i.e. cultures incubated with medium alone), was expressed as counts per minute (c.p.m.)—which directly correlate with the extent of cell proliferation. All experiments were performed in triplicate.\nIn these latter assays, the effects of Z-DTPs, Ac-DTPs and Z-LTPs on the survival/proliferation of tumour cell lines was investigated by measuring DNA synthesis using standard tritiated thymidine ([^3H]thymidine; [^3H]-TdR) uptake assays. In the analyses shown, cells were incubated for 24, 72, 120 or 144 hrs at 37° C. in the presence or absence of control or bioactive tetrapeptides, as indicated, then subjected to an additional incubation for 18 hrs with [^3H]-TdR (0.037 MBq/well, equivalent to […]). Cells were subsequently harvested onto glass fibre filter mats using a 96-well plate automated cell harvester, after which scintillation fluid was added, and [^3H]thymidine incorporation measured by liquid scintillation spectroscopy on a beta counter. The results are expressed as the percentages of the counts per minute (c.p.m.) (directly correlating with the extent of cell proliferation) measured with tetrapeptide-treated cultures relative to the c.p.m. measured with the corresponding cultures incubated with medium alone (untreated cells). All experiments were performed in triplicate."}, "[3]": {"conditions": "plasma, iv, 10 mg/kg, 10 mg/kg i.v., male CD1 mice, read-out: Total CL (converted)"}, "[4]": {"conditions": "plasma, iv, 10 mg/kg, 10 mg/kg i.v., male CD1 mice, read-out: Vss"}, "[5]": {"conditions": "plasma, iv, 10 mg/kg, 10 mg/kg i.v., male CD1 mice, read-out: Vβ"}, "[6]": {"conditions": "plasma, iv, 10 mg/kg i.v., male CD1 mice"}}, "note": "Values joined by “and” are separate entries in the source; they are usually repeats but may differ in a detail not shown here. Equal entries are not always repeated. Where two headings read alike, the source gives them in different places. Square brackets hold non-standard residues; d marks the D form. Peptide text beside a SMILES is read from it. * marks the point of attachment. Cbz = O=C(OCc1ccccc1)*"}
{"molecule": "CC(=O)N[C@H](Cc1ccc(O)cc1)C(=O)N[C@H](CCCNC(=N)N)C(=O)N[C@H](Cc1ccccc1)C(N)=O", "note": "[Compound 17, Ac-D-Tyr-D-Arg-D-Phe-NH2] (Ac-[dY]-[dR]-[dF]-NH2)", "values": [{"measurement": "Last Time point", "setting": "[1]; 10 mg/kg i.v., male CD1 mice", "result": 6.667}, {"measurement": "kel", "setting": "[1]", "result": "kel/t1/2 = 0.693/2.08 = 0.3323 hr^−1"}, {"measurement": "total clearance, times lower than that of Z-DTP2", "setting": "[1]; i.v., mice", "result": 3, "unit": "times"}, {"measurement": "half-life", "setting": "[1]; in vivo, iv, 10 mg/kg, T1/2", "result": 1.26, "unit": "h"}, {"measurement": "clearance", "setting": "[1]; [3]", "result": "0.736 mL/min and 27.1 mL/min/kg"}, {"measurement": "Vd", "setting": "[1]; [4]", "result": 0.0126, "unit": "L"}, {"measurement": "Vd", "setting": "[1]; [5]", "result": 0.0756, "unit": "L"}, {"measurement": "half-life", "setting": "[1]; plasma, iv, 10 mg/kg, i.v., mice, read-out: initial distributive half-life", "result": "~0.0833", "unit": "h"}, {"measurement": "half-life", "setting": "[1]; plasma, iv, 10 mg/kg, i.v., mice, read-out: terminal half-life (converted)", "result": "~8", "unit": "h"}, {"measurement": "clearance", "setting": "[1]; plasma, iv, 10 mg/kg, i.v., mice, read-out: values of total clearance in the range", "result": "22 to 27", "unit": "mL/min/kg"}, {"measurement": "C0", "setting": "[1]; [6]", "result": 29100, "unit": "ng/mL"}, {"measurement": "MRT inf", "setting": "[1]; [6]", "result": 0.281, "unit": "h"}, {"measurement": "AUC", "setting": "[1]; [6]", "result": 6430, "unit": "ng·h/mL"}, {"measurement": "acute toxicity in mice", "setting": "[1]", "result": "absence of acute toxicity"}, {"measurement": "IC50", "setting": "[2]; Day 1", "result": 1000, "unit": "nM"}, {"measurement": "IC50", "setting": "[2]; Day 6, listed as mDTP3", "result": 16, "unit": "nM"}, {"measurement": "IC50", "setting": "[2]; Day 6", "result": 25, "unit": "nM"}]}
{"molecule": "N=C(N)NCCC[C@@H](NC(=O)[C@@H](CCC(=O)O)NC(=O)[C@@H](Cc1ccc(O)cc1)NC(=O)OCc1ccccc1)C(=O)N[C@H](Cc1ccccc1)C(N)=O", "note": "[Compound 9, Z-D-Tyr-D-Glu-D-Arg-D-Phe-NH2] (Cbz-[dY][dE][dR][dF]-NH2)", "values": [{"measurement": "Last Time point", "setting": "[1]; 10 mg/kg i.v., male CD1 mice", "result": 8.0}, {"measurement": "kel", "setting": "[1]", "result": "kel/t1/2 = 0.693/2.08 = 0.3323 hr^−1"}, {"measurement": "half-life", "setting": "[1]; in vivo, iv, 10 mg/kg, T1/2", "result": 2.08, "unit": "h"}, {"measurement": "half-life", "setting": "[1]; plasma, intravenous, text b344, read-out: half-lives in vivo (converted)", "result": "~2", "unit": "h"}, {"measurement": "clearance", "setting": "[1]; [3]", "result": "2.18 mL/min and 78.1 mL/min/kg"}, {"measurement": "Vd", "setting": "[1]; [4]", "result": 0.126, "unit": "L"}, {"measurement": "Vd", "setting": "[1]; [5]", "result": 0.394, "unit": "L"}, {"measurement": "half-life", "setting": "[1]; plasma, iv, mice, read-out: initial distributive half-life", "result": "~0.0833", "unit": "h"}, {"measurement": "half-life", "setting": "[1]; plasma, iv, mice, read-out: terminal half-life (converted)", "result": "~8", "unit": "h"}, {"measurement": "clearance", "setting": "[1]; plasma, iv, mice, read-out: values of total clearance in the range", "result": "66 to 90", "unit": "mL/min/kg"}, {"measurement": "C0", "setting": "[1]; [6]", "result": 8740, "unit": "ng/mL"}, {"measurement": "MRT inf", "setting": "[1]; [6]", "result": 0.973, "unit": "h"}, {"measurement": "AUC", "setting": "[1]; [6]", "result": 2080, "unit": "ng·h/mL"}, {"measurement": "acute toxicity in mice", "setting": "[1]", "result": "absence of acute toxicity"}, {"measurement": "IC50", "setting": "[2]; Day 1, listed as Z-DTP2", "result": 2880, "unit": "nM"}, {"measurement": "IC50", "setting": "[2]; Day 1", "result": 2900, "unit": "nM"}, {"measurement": "IC50", "setting": "[2]; Day 3", "result": 25.7, "unit": "nM"}, {"measurement": "IC50", "setting": "[2]; Day 6", "result": 66, "unit": "nM"}]}
